Patent publication US20240336572A1, “SUBSTITUTED INDAZOLE PROPIONIC ACID DERIVATIVE COMPOUNDS AND USES THEREOF” (Pfizer Inc., priority 2023, published 2024)

Tests used:
[1] = Metabolite profile in liver microsomes, hepatocytes, recombinant human P450 and UGT enzymes, and animal plasma; format: in vitro ADME; conditions: liver microsomes and hepatocytes (mouse, rat, rabbit, dog, monkey, human)
Procedure: The metabolite profile of Example 1 is evaluated in liver microsomes and hepatocytes (mouse, rat, rabbit, dog, monkey, and human), recombinant human cytochrome P450 enzymes, recombinant human UGT enzymes, and plasma from animals (mouse, rat, and dog).

AMPK 221 = target: T1, AMPK 221 (Homo sapiens, UniProt O43741+P54646); experiment: Biochemical profiling of AMPK activators by AMPK221 (HTRF/TR-FRET assay, SAMS peptide, PP2A dephosphorylation protection); conditions: for EC50: phosphorylated AMPK 221 (α2β2δ1), 11 point dilution, duplicate, 4-parameter fit; for Emax: phosphorylated AMPK 221, maximal activation
T1 construct: open reading frames encoding the full-length α2, β2 and δ1 subunits of human AMPK; made in house; host or cells: E. coli BL21-CodonPlus (DE3)-RIPL, pET-14b

AMPK 111 = target: T2, AMPK 111 (Homo sapiens, UniProt Q13131+Q9Y478); experiment: Biochemical profiling of AMPK activators by AMPK111 (HTRF/TR-FRET assay, SAMS peptide, PP2A dephosphorylation protection); conditions: for EC50: phosphorylated AMPK 111 (α1β1δ1 as printed), 11 point dilution, duplicate, 4-parameter fit; for Emax: phosphorylated AMPK 111, maximal activation
T2 construct: open reading frames encoding the full-length α1, β1 and δ1 subunits of human AMPK; made in house; host or cells: E. coli BL21-CodonPlus (DE3)-RIPL, pET-14b
T2 sequence (Q13131 whole entry): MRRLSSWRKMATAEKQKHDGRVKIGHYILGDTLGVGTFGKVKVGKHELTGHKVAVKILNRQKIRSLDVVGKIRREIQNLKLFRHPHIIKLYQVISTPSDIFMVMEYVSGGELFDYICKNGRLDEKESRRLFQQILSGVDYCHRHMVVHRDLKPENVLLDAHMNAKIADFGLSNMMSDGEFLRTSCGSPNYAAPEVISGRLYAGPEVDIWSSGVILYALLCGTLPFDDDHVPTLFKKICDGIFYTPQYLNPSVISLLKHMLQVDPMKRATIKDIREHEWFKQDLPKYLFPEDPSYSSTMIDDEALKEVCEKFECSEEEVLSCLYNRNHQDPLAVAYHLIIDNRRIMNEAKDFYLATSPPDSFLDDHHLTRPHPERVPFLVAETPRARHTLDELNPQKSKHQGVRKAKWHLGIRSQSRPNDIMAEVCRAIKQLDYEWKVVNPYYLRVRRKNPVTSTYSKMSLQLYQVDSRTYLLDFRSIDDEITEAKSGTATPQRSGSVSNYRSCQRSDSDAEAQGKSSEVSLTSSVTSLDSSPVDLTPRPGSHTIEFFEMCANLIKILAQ
T2 sequence (Q9Y478 whole entry): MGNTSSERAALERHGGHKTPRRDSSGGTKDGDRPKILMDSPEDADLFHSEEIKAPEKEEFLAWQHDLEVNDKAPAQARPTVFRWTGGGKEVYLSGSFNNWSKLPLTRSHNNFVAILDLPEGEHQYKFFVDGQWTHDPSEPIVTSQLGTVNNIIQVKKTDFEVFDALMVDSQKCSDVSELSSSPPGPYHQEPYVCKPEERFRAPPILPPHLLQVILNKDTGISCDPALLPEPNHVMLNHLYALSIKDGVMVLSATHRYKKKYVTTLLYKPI
T2 sequence (P54619 whole entry partner): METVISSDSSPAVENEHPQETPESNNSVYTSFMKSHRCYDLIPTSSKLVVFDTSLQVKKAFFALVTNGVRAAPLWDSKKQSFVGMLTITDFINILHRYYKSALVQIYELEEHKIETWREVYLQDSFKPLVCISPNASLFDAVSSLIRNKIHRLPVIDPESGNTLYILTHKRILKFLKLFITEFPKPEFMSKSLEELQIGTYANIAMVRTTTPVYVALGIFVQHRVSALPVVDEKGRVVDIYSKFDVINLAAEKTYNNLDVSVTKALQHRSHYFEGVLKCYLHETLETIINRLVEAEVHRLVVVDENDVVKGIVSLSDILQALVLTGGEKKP

T1 sequence (P54646 whole entry): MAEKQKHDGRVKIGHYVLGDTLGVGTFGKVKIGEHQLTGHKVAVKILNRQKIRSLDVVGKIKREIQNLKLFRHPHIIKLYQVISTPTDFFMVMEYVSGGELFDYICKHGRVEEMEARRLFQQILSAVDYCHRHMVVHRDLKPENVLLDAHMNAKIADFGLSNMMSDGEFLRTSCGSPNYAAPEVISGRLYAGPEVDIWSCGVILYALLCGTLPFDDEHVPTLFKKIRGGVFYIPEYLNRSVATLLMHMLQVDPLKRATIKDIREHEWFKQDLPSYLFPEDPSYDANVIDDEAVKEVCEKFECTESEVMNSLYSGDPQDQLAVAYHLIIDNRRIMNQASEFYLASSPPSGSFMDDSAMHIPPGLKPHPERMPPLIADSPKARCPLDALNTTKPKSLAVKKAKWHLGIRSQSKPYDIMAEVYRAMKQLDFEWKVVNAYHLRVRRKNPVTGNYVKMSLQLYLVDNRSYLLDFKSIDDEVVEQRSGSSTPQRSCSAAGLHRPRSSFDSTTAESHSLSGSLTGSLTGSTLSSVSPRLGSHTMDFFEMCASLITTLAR
T1 sequence (O43741 whole entry): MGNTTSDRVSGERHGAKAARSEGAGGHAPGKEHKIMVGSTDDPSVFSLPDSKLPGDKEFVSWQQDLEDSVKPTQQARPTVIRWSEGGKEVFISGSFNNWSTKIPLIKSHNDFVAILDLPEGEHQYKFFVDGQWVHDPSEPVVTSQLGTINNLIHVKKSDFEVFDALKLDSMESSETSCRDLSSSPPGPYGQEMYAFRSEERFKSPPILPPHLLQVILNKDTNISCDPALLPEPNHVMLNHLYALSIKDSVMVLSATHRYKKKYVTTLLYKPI
T1 sequence (P54619 whole entry partner): as the sequence (P54619 whole entry partner) above

| SMILES | metabolite profile [1] | EC50 (AMPK 221) | Emax (AMPK 221) | EC50 (AMPK 111) | Emax (AMPK 111) |
| --- | --- | --- | --- | --- | --- |
| O=C(O)CCc1n[nH]c2cc(Cl)c(-c3ccc(-c4ccccc4O)cc3)cc12 [Example 1, 3-(6-Chloro-5-(2′-hydroxy-[1,1′-biphenyl]-4-yl)-1H-indazol-3-yl)propanoic acid] | oxidation and glucuronidation | 88 nM | 57% | 47 nM | 75% |
| O=C(O)CCCc1n[nH]c2cc(Cl)c(-c3ccc(-c4ccccc4O)cc3)cc12 [Example 43, 4-(6-chloro-5-(2′-hydroxy-[1,1′-biphenyl]-4-yl)-1H-indazol-3-yl)butanoic acid] | – | 248 nM | 62% | 51 nM | 80% |
| COc1cccc(-c2ccc(-c3cc4c(CCCC(=O)O)n[nH]c4cc3Cl)cc2)c1O [Example 74, 4-(6-chloro-5-(2′-hydroxy-3′-methoxy-[1,1′-biphenyl]-4-yl)-1H-indazol-3-yl)butanoic acid] | – | 66 nM | 69% | 92 nM | 80% |
| COc1ccc(F)c(-c2ccc(-c3cc4c(CCC(=O)O)n[nH]c4cc3Cl)cc2)c1O [Example 26, 3-(6-chloro-5-(6′-fluoro-2′-hydroxy-3′-methoxy-[1,1′-biphenyl]-4-yl)-1H-indazol-3-yl)propanoic acid] | – | 114 nM | 66% | 107 nM | 77% |
| COc1ccc(-c2ccc(-c3cc4c(CCC(=O)O)n[nH]c4cc3Cl)cc2)c(O)c1OC [Example 52, 3-(6-chloro-5-(2′-hydroxy-3′,4′-dimethoxy-[1,1′-biphenyl]-4-yl)-1H-indazol-3-yl)propanoic acid] | – | 19 nM | 65% | 6 nM | 85% |
| O=C(CCc1n[nH]c2cc(Cl)c(-c3ccc(-c4ccccc4O)cc3)cc12)OC1OC(C(=O)O)C(O)C(O)C1O (stereo not shown) [Example 79, 6-((3-(6-chloro-5-(2′-hydroxy-[1,1′-biphenyl]-4-yl)-1H-indazol-3-yl)propanoyl)oxy)-3,4,5-trihydroxytetrahydro-2H-pyran-2-carboxylic acid] | – | 29 nM | 27% | 39 nM | 67% |
| Cc1cscc1-c1ccc(-c2cc3c(CCC(=O)O)n[nH]c3cc2Cl)cc1 [Example 60, 3-(6-chloro-5-(4-(4-methylthiophen-3-yl)phenyl)-1H-indazol-3-yl)propanoic acid] | – | 532 nM | 21% | 241 nM | 53% |
| Cc1cncc(O)c1-c1ccc(-c2cc3c(CCC(=O)O)n[nH]c3cc2Cl)cc1 [Example 27, 3-(6-chloro-5-(4-(3-hydroxy-5-methylpyridin-4-yl)phenyl)-1H-indazol-3-yl)propanoic acid] | – | 125 nM | 62% | 7 nM | 87% |
| O=C(O)CCc1n[nH]c2cc(Cl)c(-c3ccc(-c4ccc(OC(F)F)cc4O)cc3)cc12 [Example 69, 3-(6-chloro-5-(4′-(difluoromethoxy)-2′-hydroxy-[1,1′-biphenyl]-4-yl)-1H-indazol-3-yl)propanoic acid] | – | 1150 nM | 58% | 480 nM | 73% |
| NS(=O)(=O)c1ccc(-c2ccc(-c3cc4c(CCC(=O)O)n[nH]c4cc3Cl)cc2)c(O)c1 [Example 9, 3-(6-chloro-5-(2′-hydroxy-4′-sulfamoyl-[1,1′-biphenyl]-4-yl)-1H-indazol-3-yl)propanoic acid] | – | 41 nM | 68% | 11 nM | 90% |
| COc1cc(O)c(-c2ccc(-c3cc4c(CCC(=O)O)n[nH]c4cc3Cl)cc2)c(Cl)c1 [Example 49, 3-(6-chloro-5-(2′-chloro-6′-hydroxy-4′-methoxy-[1,1′-biphenyl]-4-yl)-1H-indazol-3-yl)propanoic acid] | – | 325 nM | 61% | 96 nM | 74% |
| O=C(O)CCc1n[nH]c2cc(Cl)c(-c3ccc(-c4cccc(F)c4O)cc3)cc12 [Example 22, 3-(6-chloro-5-(3′-fluoro-2′-hydroxy-[1,1′-biphenyl]-4-yl)-1H-indazol-3-yl)propanoic acid] | – | 100 nM | 59% | 111 nM | 74% |
| NC(=O)c1ccc(-c2ccc(-c3cc4c(CCC(=O)O)n[nH]c4cc3Cl)cc2)cc1 [Example 5, 3-(5-(4′-Carbamoyl-[1,1′-biphenyl]-4-yl)-6-chloro-1H-indazol-3-yl)propanoic acid] | – | 37 nM | 62% | 89 nM | 59% |
| O=C(O)CCc1n[nH]c2cc(Cl)c(-c3ccc(-c4ccccc4OC4OC(C(=O)O)C(O)C(O)C4O)cc3)cc12 (stereo not shown) [Example 80, 6-((4′-(3-(2-carboxyethyl)-6-chloro-1H-indazol-5-yl)-[1,1′-biphenyl]-2-yl)oxy)-3,4,5-trihydroxytetrahydro-2H-pyran-2-carboxylic acid] | – | > 21100 nM | – | > 21100 nM | – |
| COc1nc(-c2ccc(-c3cc4c(CCC(=O)O)n[nH]c4cc3Cl)cc2)cs1 [Example 59, 3-(6-chloro-5-(4-(2-methoxythiazol-4-yl)phenyl)-1H-indazol-3-yl)propanoic acid] | – | 546 nM | 13% | 609 nM | 30% |
| COc1cccc(-c2ccc(-c3cc4c(CCC(=O)O)n[nH]c4cc3Cl)cc2)c1O [Example 2, 3-(6-Chloro-5-(2′-hydroxy-3′-methoxy-[1,1′-biphenyl]-4-yl)-1H-indazol-3-yl)propanoic acid] | – | 34 nM | 66% | 29 nM | 80% |
| O=C(O)CCc1n[nH]c2cc(Cl)c(-c3ccc(-c4ccc(F)cc4O)cc3)cc12 [Example 47, 3-(6-chloro-5-(4′-fluoro-2′-hydroxy-[1,1′-biphenyl]-4-yl)-1H-indazol-3-yl)propanoic acid] | – | 282 nM | 59% | 113 nM | 83% |
